Source: patent US12577245B2, “Sulfonyl benzamide derivatives as Bcl-2 inhibitors” (ASCENTAGE PHARMA (SUZHOU) CO., LTD., priority 2021, dated 2026)

Assays:
MV-4-11 cells = experiment: CCK-8 cell viability assay in MV-4-11 cells; format: cell-based; conditions: Homo sapiens, MV4-11, 72 h, 10% FBS, 3 days
Procedure, shortened: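 IC50 values come from vehicle-normalized CCK-8 absorbance at 450 nm, read 1–4 h after reagent addition. Before that, MV-4-11 cells seeded at 20000 per well were cultured 3 days at 37 °C with a compound dilution series.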

RS4; 11Bcl-2-G101V cells = experiment: CellTiter-Glo (CTG) cell viability assay in RS4;11-Bcl-2-G101V cells; format: cell-based; conditions: 72 h, 10% FBS, 3 days
Procedure, shortened: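 Luminescent ATP read-out (CellTiter-Glo) after 3-day compound treatment at 37 °C gave viability relative to vehicle, from which IC50 was fitted. Mutant Bcl-2 RS4;11 cells were seeded at 10000 per well and rested 4 h before dosing.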

Bcl-2 WT = Bcl-2 WT (Homo sapiens, UniProt P10415); experiment: Bcl-2 WT inhibition, fluorescence polarization (Flu-BIM tracer) binding assay; conditions: FP; 20 nM Bcl2, 5 nM Flu-BIM, 1 h incubation; read-out: Bcl-2 w.t. (FP)
Bcl-2 WT, sequence (P10415 whole entry): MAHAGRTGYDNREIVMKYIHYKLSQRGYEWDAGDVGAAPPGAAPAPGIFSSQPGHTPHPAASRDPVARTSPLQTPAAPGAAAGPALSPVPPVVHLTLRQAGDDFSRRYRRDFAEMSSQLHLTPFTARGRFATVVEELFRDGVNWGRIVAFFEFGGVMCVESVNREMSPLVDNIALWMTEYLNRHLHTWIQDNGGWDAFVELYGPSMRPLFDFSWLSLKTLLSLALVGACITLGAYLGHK

| Structure (SMILES) | IC50 (MV-4-11 cells) | IC50 (RS4; 11Bcl-2-G101V cells) | IC50 (Bcl-2 WT) |
| --- | --- | --- | --- |
| CC1(C)CCC(CN2CCN(c3ccc(C(=O)NS(=O)(=O)c4ccc(NC[C@H]5CC[C@](C)(O)CC5)c([N+](=O)[O-])c4)c(Oc4cnc5[nH]ccc5c4)c3)CC2)=C(c2cc(-c3ccc(C(O)(C(F)(F)F)C(F)(F)F)cc3)cs2)C1 [Example 60, 2-((1H-pyrrolo[2,3-b]pyridin-5-yl)oxy)-4-(4-((2-(4-(4-(1,1,1,3,3,3-hexafluoro-2-hydroxypropan-2-yl)phenyl)thiophen-2-yl)-4,4-dimethylcyclohex-1-en-1-yl)methyl)piperazin-1-yl)-N-((4-((((1r,4r)-4-hydroxy-4-methylcyclohexyl)methyl)amino)-3-nitrophenyl)sulfonyl)benzamide] | 303 nM | 3410 nM | 20.4 nM |
| CC1(C)CCC(CN2CCN(c3ccc(C(=O)NS(=O)(=O)c4ccc(NC[C@H]5CC[C@](C)(O)CC5)c([N+](=O)[O-])c4)c(Oc4cnc5[nH]ccc5c4)c3)CC2)=C(c2cc(-c3ccc(C(C)(C)O)cc3F)cs2)C1 [Example 62, 2-((1H-pyrrolo[2,3-b]pyridin-5-yl)oxy)-4-(4-((2-(4-(2-fluoro-4-(2-hydroxypropan-2-yl)phenyl)thiophen-2-yl)-4,4-dimethylcyclohex-1-en-1-yl)methyl)piperazin-1-yl)-N-((4-((((1r,4r)-4-hydroxy-4-methylcyclohexyl)methyl)amino)-3-nitrophenyl)sulfonyl)benzamide] | 4 nM | 140 nM | 15.7 nM |
| CC1(C)CCC(CN2CCN(c3ccc(C(=O)NS(=O)(=O)c4ccc(NC[C@H]5COCCO5)c([N+](=O)[O-])c4)c(Oc4cnc5[nH]ccc5c4)c3)CC2)=C(c2cc(-c3c(F)cc(C(C)(C)O)cc3F)cs2)C1 [Example 64, (S)—N-((4-(((1,4-dioxan-2-yl)methyl)amino)-3-nitrophenyl)sulfonyl)-2-((1H-pyrrolo[2,3-b]pyridin-5-yl)oxy)-4-(4-((2-(4-(2,6-difluoro-4-(2-hydroxypropan-2-yl)phenyl)thiophen-2-yl)-4,4-dimethylcyclohex-1-en-1-yl)methyl)piperazin-1-yl)benzamide] | 7 nM | 30 nM | 16.4 nM |
| CCC(O)(CC)c1cc(F)c(-c2csc(C3=C(CN4CCN(c5ccc(C(=O)NS(=O)(=O)c6ccc(NC[C@H]7CC[C@](C)(O)CC7)c([N+](=O)[O-])c6)c(Oc6cnc7[nH]ccc7c6)c5)CC4)CCC(C)(C)C3)c2)c(F)c1 [Example 67, 2-((1H-pyrrolo[2,3-b]pyridin-5-yl)oxy)-4-(4-((2-(4-(2,6-difluoro-4-(3-hydroxypentan-3-yl)phenyl)thiophen-2-yl)-4,4-dimethylcyclohex-1-en-1-yl)methyl)piperazin-1-yl)-N-((4-((((1r,4r)-4-hydroxy-4-methylcyclohexyl)methyl)amino)-3-nitrophenyl)sulfonyl)benzamide] | 251 nM | 840 nM | 27.2 nM |
| [2H]C([2H])([2H])C(O)(c1cc(F)c(-c2csc(C3=C(CN4CCN(c5ccc(C(=O)NS(=O)(=O)c6ccc(NC[C@H]7CC[C@](C)(O)CC7)c([N+](=O)[O-])c6)c(Oc6cnc7[nH]ccc7c6)c5)CC4)CCC(C)(C)C3)c2)c(F)c1)C([2H])([2H])[2H] [Example 68, 2-((1H-pyrrolo[2,3-b]pyridin-5-yl)oxy)-4-(4-((2-(4-(2,6-difluoro-4-(2-hydroxypropan-2-yl-1,1,1,3,3,3-d6)phenyl)thiophen-2-yl)-4,4-dimethylcyclohex-1-en-1-yl)methyl)piperazin-1-yl)-N-((4-((((1r,4r)-4-hydroxy-4-methylcyclohexyl)methyl)amino)-3-nitrophenyl)sulfonyl)benzamide] | 9 nM | 21 nM | 23.2 nM |
